Among the test systems are SK-OV-3; MDA-N; SR; U-251; NCI-H23; ACHN; NCI/ADR-RES; HCT-15; K562; T47D; OVCAR-3; CCRF-CEM; CAKI-1; OVCAR-5; LOX IMVI; M14; SN12C; 786-0; NCI-H522.
Experiment in all cases: DTP human tumour cell line panel, 48 h

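The compound was tested at five concentrations on cells cultured in 96-well plates, with a 48-hour exposure period. Abbreviation: GI50, concentration required for 50% inhibition of growth.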 The source made the active and inactive calls. Cut-off read from the data, not from the text of the source: active = GI50 up to about 1.1 µM and inactive = higher.

The results in this text go back to ChEMBL document CHEMBL1201862, “PubChem BioAssay data set” (2004).

Take `Nc1ncc(CN2CCOCC2)c(-c2ccccc2O)n1`: the GI50 in the experiment on SK-OV-3, in the experiment with MDA-N, with SR, with U-251, in the experiment with NCI-H23 and with ACHN was > 100 µM (inactive) throughout. The GI50 in the experiment with NCI/ADR-RES was > 100 µM (inactive); in the experiment with HCT-15 it was over 100 µM; in the experiment with K562, > 100 µM (inactive); with T47D, > 100 µM (inactive); with OVCAR-3, > 100 µM (inactive); in the experiment with CCRF-CEM, > 100 µM (inactive). The GI50 in the experiment on CAKI-1, in the experiment with OVCAR-5, in the experiment on LOX IMVI, in the experiment on M14, with SN12C and with 786-0 was > 100 µM (inactive) each time.
On to `O/N=C(\CC(O)(C(F)(F)F)C(F)(F)F)c1cccc(Cl)c1`, for which the GI50 in the experiment on SK-OV-3 is 22.7 µM (inactive); in the experiment on MDA-N, 37.3 µM (inactive); in the experiment on SR, 45.3 µM (inactive); in the experiment on U-251, 20.2 µM (inactive); in the experiment with NCI-H23 it was 20.5 µM (inactive); in the experiment on ACHN it was 23.8 µM (inactive). The GI50 in the experiment with NCI/ADR-RES is 38 µM (inactive); in the experiment on NCI-H522, 30.5 µM (inactive); in the experiment on HCT-15 it was 32.4 µM; with K562, 30.2 µM (inactive); with T47D it was 32.7 µM (inactive); in the experiment with OVCAR-3 it was 19.8 µM (inactive). Moreover, the GI50 was 19.8 µM (inactive) in the experiment on CCRF-CEM; 21.5 µM (inactive) with CAKI-1; 47.9 µM (inactive) in the experiment with OVCAR-5; 23 µM (inactive) in the experiment with LOX IMVI; 22.8 µM (inactive) with M14; 35.5 µM (inactive) in the experiment with 786-0.
Turning to `CC(=O)Oc1cc2c(c3ncccc13)OC(C)(C)C2`, the GI50 in the experiment on SK-OV-3 was 27.2 µM (inactive); in the experiment with MDA-N, 2.94 µM (inactive); in the experiment with SR it was 1.54 µM (inactive); with U-251, 12.4 µM (inactive); in the experiment with NCI-H23 it was > 100 µM (inactive); in the experiment on ACHN it was 11.1 µM (inactive). The GI50 in the experiment with NCI/ADR-RES is 2.95 µM (inactive); in the experiment on NCI-H522, 1.17 µM (inactive); with HCT-15, 11.8 µM; with K562 it was 6.19 µM (inactive); with T47D, 17.1 µM (inactive); in the experiment with OVCAR-3 it was 11.5 µM (inactive). In addition, the GI50 in the experiment on CCRF-CEM was 10.5 µM (inactive); in the experiment with CAKI-1 it was 7.4 µM (inactive); in the experiment on OVCAR-5, 14.8 µM (inactive); with M14 it was 12.8 µM (inactive); with SN12C it was 12.2 µM (inactive); with 786-0, 14.6 µM (inactive).
Take `CCCCN1C(=O)CC2[C@@H]3CCc4cc(OC(C)=O)ccc4C3CC[C@]2(C)C1=O` (stereo partly drawn): the GI50 with SK-OV-3, in the experiment on MDA-N, in the experiment on SR, in the experiment on U-251, with NCI-H23 and in the experiment with ACHN was > 10 µM (inactive) throughout. Also, the GI50 in the experiment on NCI/ADR-RES was > 10 µM (inactive); with HCT-15, over 10 µM; with K562 it was > 10 µM (inactive); in the experiment with T47D it was > 10 µM (inactive); in the experiment with OVCAR-3 it was > 10 µM (inactive); in the experiment with CCRF-CEM, > 10 µM (inactive). Further, the GI50 with CAKI-1, with OVCAR-5, in the experiment on LOX IMVI, with M14, with SN12C and with 786-0 was > 10 µM (inactive) throughout.
On to `Cc1cccc(NC(=S)Nc2ccccc2Cl)n1`, for which the GI50 in the experiment with SK-OV-3 was 25.8 µM (inactive); with MDA-N, > 100 µM (inactive); in the experiment on SR, > 100 µM (inactive); in the experiment on U-251 it was 33.6 µM (inactive); in the experiment on NCI/ADR-RES, 49 µM (inactive); in the experiment with HCT-15, 76.9 µM. The GI50 was > 100 µM (inactive) in the experiment on K562; 29 µM (inactive) in the experiment on T47D; > 100 µM (inactive) in the experiment with OVCAR-3; > 100 µM (inactive) with CCRF-CEM; 27.4 µM (inactive) in the experiment with CAKI-1; 81.7 µM (inactive) in the experiment with OVCAR-5. The GI50 in the experiment with LOX IMVI was > 100 µM (inactive); in the experiment on M14, > 100 µM (inactive); in the experiment with SN12C, 51.8 µM (inactive); in the experiment on 786-0, 34.3 µM (inactive).
Regarding `S=C1c2ccc(Cl)cc2-n2cnnc2C2CSCN12` (stereo not drawn), the GI50 in the experiment with SK-OV-3 was > 100 µM (inactive); in the experiment with MDA-N it was 63.1 µM (inactive); in the experiment on SR, 52.4 µM (inactive); with U-251, > 100 µM (inactive); in the experiment with ACHN, > 100 µM (inactive); in the experiment with NCI/ADR-RES, > 100 µM (inactive). The GI50 in the experiment on NCI-H522 was > 100 µM (inactive); in the experiment with HCT-15, over 100 µM; in the experiment with K562 it was 13.9 µM (inactive); in the experiment on T47D it was > 100 µM (inactive); with OVCAR-3, > 100 µM (inactive); in the experiment with CCRF-CEM, > 100 µM (inactive). The GI50 in the experiment with CAKI-1, with OVCAR-5, in the experiment on LOX IMVI, in the experiment with M14, in the experiment with SN12C and with 786-0 was > 100 µM (inactive) throughout.
As to `CC(C)(C)OC(=O)NCC(=O)NC1C/C(=N\O)c2sccc21` (stereo not drawn), the GI50 in the experiment with SK-OV-3, in the experiment with MDA-N, in the experiment with SR, in the experiment with U-251, in the experiment with NCI-H23 and in the experiment on NCI/ADR-RES was > 100 µM (inactive) throughout. Besides, the GI50 with HCT-15 was over 100 µM; with K562, > 100 µM (inactive); with T47D, > 100 µM (inactive); with OVCAR-3, > 100 µM (inactive); with CCRF-CEM it was > 100 µM (inactive); with CAKI-1, > 100 µM (inactive). For the same compound, the GI50 in the experiment on OVCAR-5, with LOX IMVI, in the experiment on M14 and in the experiment on SN12C was > 100 µM (inactive) each time.
Take `N#Cc1c(-c2ccccc2)c(C=O)c(=O)n2c1[nH]c1ccccc12`: the GI50 is > 100 µM (inactive) with SK-OV-3; 84.3 µM (inactive) with MDA-N; 67.6 µM (inactive) in the experiment with SR; 50.8 µM (inactive) in the experiment with U-251; 61.7 µM (inactive) in the experiment on NCI-H23; 78.3 µM (inactive) in the experiment with ACHN. Also, the GI50 with NCI/ADR-RES is > 100 µM (inactive); in the experiment on NCI-H522, 55.6 µM (inactive); in the experiment on HCT-15 it was 70 µM; in the experiment with K562, 67 µM (inactive); in the experiment with T47D, 65.9 µM (inactive); with CCRF-CEM, 17.6 µM (inactive). For the same compound, the GI50 in the experiment on CAKI-1 was > 100 µM (inactive); in the experiment with OVCAR-5, > 100 µM (inactive); with M14, 97.5 µM (inactive); with SN12C it was 45.3 µM (inactive); in the experiment on 786-0, > 100 µM (inactive).
On to `CCOC(=O)c1nc2ccccc2nc1NCc1cc(OC)c(OC)c(OC)c1`, for which the GI50 in the experiment on SK-OV-3 is 80.5 µM (inactive); in the experiment with MDA-N, 14.8 µM (inactive); in the experiment with SR it was 37.8 µM (inactive); with U-251, 42.1 µM (inactive); in the experiment on NCI-H23, > 100 µM (inactive); with ACHN, 43.6 µM (inactive). In addition, the GI50 was 15.1 µM (inactive) in the experiment with NCI/ADR-RES; 33 µM (inactive) with NCI-H522; 30.3 µM in the experiment with HCT-15; 27.8 µM (inactive) in the experiment on K562; 35.5 µM (inactive) in the experiment with T47D; 75.5 µM (inactive) in the experiment on OVCAR-3. The GI50 is 39.9 µM (inactive) in the experiment with CCRF-CEM; 70.6 µM (inactive) in the experiment on CAKI-1; > 100 µM (inactive) in the experiment on OVCAR-5; 47 µM (inactive) in the experiment on LOX IMVI; 27.4 µM (inactive) in the experiment with SN12C; 72.9 µM (inactive) with 786-0.
As to `COC(=O)[C@@H]1C[C@@]23CCCN4CC[C@@]5(c6cccc(OC)c6N(C=O)[C@]15CC2)[C@@H]43`, the GI50 with SK-OV-3, in the experiment on MDA-N, with SR, in the experiment on U-251, in the experiment on NCI-H23 and in the experiment with ACHN was > 100 µM (inactive) throughout. Besides, the GI50 with NCI/ADR-RES was > 100 µM (inactive); in the experiment on NCI-H522 it was > 100 µM (inactive); in the experiment with HCT-15, over 100 µM; in the experiment on T47D it was > 100 µM (inactive); in the experiment on OVCAR-3, > 100 µM (inactive); in the experiment on CCRF-CEM, > 100 µM (inactive). Also, the GI50 in the experiment on CAKI-1, in the experiment on OVCAR-5, with LOX IMVI, in the experiment with M14, with SN12C and in the experiment with 786-0 was > 100 µM (inactive) throughout.
Take `CCOC(=S)SSSC(=S)OCC`: the GI50 is > 100 µM (inactive) in the experiment with SK-OV-3; 49.3 µM (inactive) in the experiment on MDA-N; 13.5 µM (inactive) with SR; 31.6 µM (inactive) with U-251; 33.4 µM (inactive) in the experiment with NCI-H23; 19.1 µM (inactive) in the experiment on ACHN. In addition, the GI50 in the experiment with NCI/ADR-RES was 58.1 µM (inactive); in the experiment on HCT-15, 19.5 µM; in the experiment with K562, 26.3 µM (inactive); with T47D, 4.22 µM (inactive); with OVCAR-3, 26.4 µM (inactive); in the experiment with CCRF-CEM, 30.5 µM (inactive). Moreover, the GI50 was 29.9 µM (inactive) in the experiment on CAKI-1; 28.6 µM (inactive) with OVCAR-5; 25.1 µM (inactive) in the experiment with LOX IMVI; 27 µM (inactive) in the experiment on M14; 21.6 µM (inactive) in the experiment on SN12C; 15.2 µM (inactive) in the experiment with 786-0.

Broadly, the GI50 is the concentration giving 50% growth inhibition.
